Results reported in patent publication US12049450B2, “Pyridyloxy-carboxylate derivative and preparation method therefor, herbicidal composition, and use” (Qingdao Kingagroot Chemical Compound Co., Ltd., priority 2018, dated 2024).

Key:
Format in all cases: in vivo
[1] = tested on: Monochoria vaginalis; assay: Weed control effect evaluation in rice field soil pot; conditions: paddy pot, 1000 g/ha, 14 days after treatment; resistant to pyrazosulfuron-ethyl and penoxsulam
Excerpt: (§1) The activity level standard of harmful plants destruction (i. e. growth inhibition rate) is as follows: • Level 5: the growth inhibition rate is greater than 85%; • Level 4: the growth inhibition rate is equal to or greater than 60% and less than 85%; • Level 3: the growth inhibition rate is equal to or greater than 40% and less than 60%; • Level 2: the growth inhibition rate is equal to or greater than 20% and less than 40%; • Level 1: the growth inhibition rate is equal to or greater than 5% and less than 20%; • Level 0: the growth inhibition rate is less than 5%;
(§2) Transplanted rice safety evaluation and weed control effect evaluation in rice field:
Rice field soil was loaded into a 1/1,000,000 ha pot. The seeds of Monochoria vaginalis were sowed and gently covered with soil, then left to stand still in greenhouse in the state of 0.5-1 cm of water storage. It was kept at 3-4 cm of water storage thereafter. The weeds were treated by dripping the WP or SC water diluents prepared according to the common preparation method of the compounds of the present invention with pipette homogeneously to achieve specified effective amount when Monochoria vaginalis reached 0.5 leaf stage.
(§3) The fertility condition of Monochoria vaginalis 14 days and rice 21 days after the treatment of the compound of the invention with the naked eye.

[2] = tested on: rice (japonica rice); assay: Transplanted rice safety evaluation in rice field soil pot; conditions: 1000 g/ha, 21 days after treatment
Excerpt: as §1, §2
In addition, the rice field soil that loaded into the 1/1,000,000 ha pot was leveled to keep water storage at 3-4 cm depth. The 3-leaf stage rice (japonica rice) was transplanted at 3 cm of transplanting depth the next day. The compound of the present invention was treated by the same way after 5 days of transplantation.
as §3

[3] = tested on: Cyperus iria; assay: Post-emergence test experiment (greenhouse pot, spray at 2-3 leaf stage); conditions: post-emergence, 600 g/ha, after 3 weeks; from Hunan, resistant to ALS inhibitor herbicides
Outline: (§4)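 Activity graded levels 0-5 by fresh-weight inhibition (level 5 above 85%, level 0 below 5%), assessed 3 weeks after treatment. Plants grown in greenhouse pots were sprayed post-emergence at 2-3 leaves using acetone/tween-80 solutions with methyl oleate synergist (1.5 L/ha).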

[4] = tested on: Indica rice; assay: as above; conditions: post-emergence, 600 g/ha, after 3 weeks
Outline: as §4

[5] = tested on: Abutilon theophrasti; assay: as above; conditions: 1000 g/ha; post-emergence spray at 2-3 leaf stage; assessed after 3 weeks; fresh weight inhibition rate
Outline: as §4

[6] = tested on: Digitaria sanguinalis; assay: as above; conditions: 1000 g/ha; post-emergence spray at 2-3 leaf stage; assessed after 3 weeks; fresh weight inhibition rate
Outline: as §4

[7] = tested on: Echinochloa crusgalli; assay: as above; conditions: for Activity level (growth inhibition rate) Echinochloa crusgalli: 1000 g/ha, post-emergence spray at 2-3 leaf stage, assessed after 3 weeks, fresh weight inhibition rate; for Echinochloa crusgalli, activity level (growth inhibition rate): post-emergence, 600 g/ha, after 3 weeks, from Hunan, resistant to ALS inhibitor herbicides
Outline: as §4

[8] = tested on: Japonica rice; assay: as above; conditions: post-emergence, 600 g/ha, after 3 weeks
Outline: as §4

[9] = tested on: Monochoria vaginalis; assay: as above; conditions: 1000 g/ha; post-emergence spray at 2-3 leaf stage; assessed after 3 weeks; fresh weight inhibition rate
Outline: as §4

[10] = tested on: Galium spurium; assay: as above; conditions: 1000 g/ha; post-emergence spray at 2-3 leaf stage; assessed after 3 weeks; fresh weight inhibition rate
Outline: as §4

| Structure (SMILES) | Monochoria Vaginalis, activity level [1] | Rice, safety level [2] | Cyperus iria, activity level (growth inhibition rate) [3] | Indica rice, activity level (growth inhibition rate) [4] | Activity level (growth inhibition rate) Abutilon theophrasti [5] | Activity level (growth inhibition rate) Digitaria sanguinalis [6] | Activity level (growth inhibition rate) Echinochloa crusgalli [7] | Echinochloa crusgalli, activity level (growth inhibition rate) [7] | Japonica rice, activity level (growth inhibition rate) [8] | Activity level (growth inhibition rate) Monochoria Vaginalis [9] | Activity level (growth inhibition rate) Galium spurium [10] |
| --- | --- | --- | --- | --- | --- | --- | --- | --- | --- | --- | --- |
| Cc1c(F)nc(OC(C)C(=O)OCc2ccccc2)c(C)c1N (centres unmarked) [Compound 7] | 5 (Level 5: the growth inhibition rate is greater than 85%) | 0 (Level 0: the growth inhibition rate is less than 5%) | 5 (Level 5: the growth inhibition rate is greater than 85%) | 0 (Level 0: the growth inhibition rate is less than 5%) | 5 (Level 5: the growth inhibition rate is greater than 85%) | 5 (Level 5: the growth inhibition rate is greater than 85%) | 5 (Level 5: the growth inhibition rate is greater than 85%) | 5 (Level 5: the growth inhibition rate is greater than 85%) | 0 (Level 0: the growth inhibition rate is less than 5%) | 5 (Level 5: the growth inhibition rate is greater than 85%) | 5 (Level 5: the growth inhibition rate is greater than 85%) |
| CC(Oc1nc(F)c(Br)c(N)c1Br)C(=O)SCc1ccccc1 (centres unmarked) [Compound 12] | 5 (Level 5: the growth inhibition rate is greater than 85%) | 0 (Level 0: the growth inhibition rate is less than 5%) | 5 (Level 5: the growth inhibition rate is greater than 85%) | 0 (Level 0: the growth inhibition rate is less than 5%) | 5 (Level 5: the growth inhibition rate is greater than 85%) | 5 (Level 5: the growth inhibition rate is greater than 85%) | 5 (Level 5: the growth inhibition rate is greater than 85%) | 5 (Level 5: the growth inhibition rate is greater than 85%) | 0 (Level 0: the growth inhibition rate is less than 5%) | 5 (Level 5: the growth inhibition rate is greater than 85%) | 5 (Level 5: the growth inhibition rate is greater than 85%) |
| Cc1c(OC(C)C(=O)OCc2ccccc2)nc(F)c(Cl)c1N (centres unmarked) [Compound 20] | 5 (Level 5: the growth inhibition rate is greater than 85%) | 0 (Level 0: the growth inhibition rate is less than 5%) | 5 (Level 5: the growth inhibition rate is greater than 85%) | 0 (Level 0: the growth inhibition rate is less than 5%) | 5 (Level 5: the growth inhibition rate is greater than 85%) | 5 (Level 5: the growth inhibition rate is greater than 85%) | 5 (Level 5: the growth inhibition rate is greater than 85%) | 5 (Level 5: the growth inhibition rate is greater than 85%) | 0 (Level 0: the growth inhibition rate is less than 5%) | 5 (Level 5: the growth inhibition rate is greater than 85%) | 5 (Level 5: the growth inhibition rate is greater than 85%) |
| CC(Oc1nc(F)c(Cl)c(N)c1Cl)C(=O)SCc1ccccc1 (centres unmarked) [Compound 67] | 5 (Level 5: the growth inhibition rate is greater than 85%) | 0 (Level 0: the growth inhibition rate is less than 5%) | 5 (Level 5: the growth inhibition rate is greater than 85%) | 0 (Level 0: the growth inhibition rate is less than 5%) | 5 (Level 5: the growth inhibition rate is greater than 85%) | 5 (Level 5: the growth inhibition rate is greater than 85%) | 5 (Level 5: the growth inhibition rate is greater than 85%) | 5 (Level 5: the growth inhibition rate is greater than 85%) | 0 (Level 0: the growth inhibition rate is less than 5%) | 5 (Level 5: the growth inhibition rate is greater than 85%) | 5 (Level 5: the growth inhibition rate is greater than 85%) |
| CC(Oc1nc(F)c(Cl)c(N)c1Cl)C(=O)OCc1ccccc1F (centres unmarked) [Compound 75] | 5 (Level 5: the growth inhibition rate is greater than 85%) | 0 (Level 0: the growth inhibition rate is less than 5%) | 5 (Level 5: the growth inhibition rate is greater than 85%) | 0 (Level 0: the growth inhibition rate is less than 5%) | 5 (Level 5: the growth inhibition rate is greater than 85%) | 5 (Level 5: the growth inhibition rate is greater than 85%) | 5 (Level 5: the growth inhibition rate is greater than 85%) | 5 (Level 5: the growth inhibition rate is greater than 85%) | 0 (Level 0: the growth inhibition rate is less than 5%) | 5 (Level 5: the growth inhibition rate is greater than 85%) | 5 (Level 5: the growth inhibition rate is greater than 85%) |
| CC(Oc1nc(F)c(Cl)c(N)c1Cl)C(=O)SCc1cccc(Cl)c1 (centres unmarked) [Compound 76] | 5 (Level 5: the growth inhibition rate is greater than 85%) | 0 (Level 0: the growth inhibition rate is less than 5%) | 5 (Level 5: the growth inhibition rate is greater than 85%) | 0 (Level 0: the growth inhibition rate is less than 5%) | 5 (Level 5: the growth inhibition rate is greater than 85%) | 5 (Level 5: the growth inhibition rate is greater than 85%) | 5 (Level 5: the growth inhibition rate is greater than 85%) | 5 (Level 5: the growth inhibition rate is greater than 85%) | 0 (Level 0: the growth inhibition rate is less than 5%) | 5 (Level 5: the growth inhibition rate is greater than 85%) | 5 (Level 5: the growth inhibition rate is greater than 85%) |
| COc1c(Cl)ccc(COC(=O)C(C)Oc2nc(F)c(Cl)c(N)c2Cl)c1F (centres unmarked) [Compound 85] | 5 (Level 5: the growth inhibition rate is greater than 85%) | 0 (Level 0: the growth inhibition rate is less than 5%) | 5 (Level 5: the growth inhibition rate is greater than 85%) | 0 (Level 0: the growth inhibition rate is less than 5%) | 5 (Level 5: the growth inhibition rate is greater than 85%) | 5 (Level 5: the growth inhibition rate is greater than 85%) | 5 (Level 5: the growth inhibition rate is greater than 85%) | 5 (Level 5: the growth inhibition rate is greater than 85%) | 0 (Level 0: the growth inhibition rate is less than 5%) | 5 (Level 5: the growth inhibition rate is greater than 85%) | 5 (Level 5: the growth inhibition rate is greater than 85%) |
